In US20050096327A1, “Novel norepinephrine reuptake inhibitors for the treatment of central nervous system disorders” (priority 2003, published 2005):
Where a name gives a salt, the structure may show the parent alone.

What follows are compounds tested against T1, human norepinephrine transporter (Homo sapiens, UniProt P23975) (assay: hNET receptor binding ([125I]-RTI-55, membranes of transfected HEK-293 cells)). Details: 50 pM [125I]-RTI-55, 90 min room temperature; IC50 converted by Cheng-Prusoff.
T1 construct: host or cells: HEK-293
T1 sequence (P23975 whole entry): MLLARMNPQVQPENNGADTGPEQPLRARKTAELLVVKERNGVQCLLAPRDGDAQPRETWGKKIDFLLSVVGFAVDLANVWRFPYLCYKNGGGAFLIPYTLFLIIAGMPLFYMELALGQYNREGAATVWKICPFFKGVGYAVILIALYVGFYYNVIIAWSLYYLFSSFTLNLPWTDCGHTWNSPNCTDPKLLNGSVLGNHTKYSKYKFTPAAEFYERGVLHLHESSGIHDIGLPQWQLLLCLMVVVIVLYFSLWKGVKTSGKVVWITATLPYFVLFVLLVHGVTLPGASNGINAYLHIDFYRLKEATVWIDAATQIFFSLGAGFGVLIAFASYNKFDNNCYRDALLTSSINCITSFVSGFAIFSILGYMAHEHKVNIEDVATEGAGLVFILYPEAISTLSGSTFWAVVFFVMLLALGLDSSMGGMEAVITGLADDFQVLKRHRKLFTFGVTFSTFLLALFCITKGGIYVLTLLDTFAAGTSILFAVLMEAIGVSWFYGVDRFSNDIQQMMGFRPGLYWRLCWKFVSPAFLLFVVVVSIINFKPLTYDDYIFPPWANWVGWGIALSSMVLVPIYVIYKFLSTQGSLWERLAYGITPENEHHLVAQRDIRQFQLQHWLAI
Description: Cell pastes of HEK-293 cells transfected with the human norepinephrine transporter were supplied by the Pfizer Ann Arbor Protein Expression and Production group. Pellets were resuspended in 400 to 700 ml of Krebs-HEPES assay buffer (25 mM HEPES, 122 mM NaCl, 3 mM KCl, 1.2 mM MgSO4, 1.3 mM CaCl2, and 11 mM glucose, pH 7.4) with a Polytron homogenizer at setting 7 for 30 sec. Aliquots of membranes (5 mg/ml protein) were stored in liquid nitrogen until used.
The binding assay was set up in Beckman deep-well polypropylene plates with a total volume of 250 μl containing: drug (10^−5M to 10^−12M), cell membranes, and 50 pM [^125I]-RTI-55 (Perkin Elmer, NEX-272; specific activity 2200 Ci/mmol). The reaction was incubated by gentle agitation for 90 min at room temperature and was terminated by filtration through Whatman GF/C filter plates using a Brandel 96-well plate harvester. Scintillation fluid (100 μl) was added to each well, and bound [^125I]-RTI-55 was determined using a Wallac Trilux Beta Plate Counter. Test compounds were run in duplicate, and specific binding was defined as the difference between binding in the presence and absence of 10 μM desipramine.
Excel and GraphPad Prism software were used for data calculation and analysis. IC50 values were converted to Ki values using the Cheng-Prusoff equation. The Ki values for the hNET are reported below in Table 1.

| Ki | Compound |
| --- | --- |
| 4.8 nM | c1ccc(-c2nc(N3CCNCC3)nc3ccccc23)cc1 [Example 3, 4-Phenyl-2-piperazin-1-yl-quinazoline] |
| 89.2 nM | NCCNc1nc(-c2ccccc2)c2ccccc2n1 [Example 13, N^1-(4-Phenyl-quinazolin-2-yl)-ethane-1,2-diamine hydrochloride] |
| 26.7 nM | CN1CCN(c2nc(-c3ccccc3Cl)c3ccccc3n2)CC1 [Example 19, 4-(2-Chloro-phenyl)-2-(4-methyl-piperazin-1-yl)-quinazoline] |
| 4.8 nM | Clc1ccccc1-c1nc(N2CCNCC2)nc2ccccc12 [Example 22, 4-(2-Chloro-phenyl)-2-piperazin-1-yl-quinazoline hydrochloride] |
| 29.5 nM | COc1ccccc1-c1nc(N2CCNCC2)nc2ccccc12 [Example 23, 4-(2-Methoxy-phenyl)-2-piperazin-1-yl-quinazoline hydrochloride] |
| 93.4 nM | c1ccc(Cc2nc(N3CCNCC3)nc3ccccc23)cc1 [Example 28, 4-Benzyl-2-piperazin-1-yl-quinazoline hydrochloride] |
| 4.8 nM | Fc1cccc(F)c1-c1nc(N2CCNCC2)nc2ccccc12 [Example 29, 4-(2,6-Difluoro-phenyl)-2-piperazin-4-yl-quinazoline hydrochloride] |
| 34.5 nM | C[C@@H]1CN(c2nc(-c3ccccc3)c3ccccc3n2)CCN1 [Example 31, (R)-(+)-2-(3-Methyl-piperazin-1-yl)-4-phenyl-quinazoline] |
| 19.3 nM | CN[C@H]1CCN(c2nc(-c3ccccc3F)c3ccccc3n2)C1 [Example 35, (S)-(+)-1-[4-(2-Fluoro-phenyl)-quinazolin-2-yl]-pyrrolidin-3-yl}-methyl-amine hydrochloride] |
| 4 nM | Fc1ccccc1-c1nc(C2CCNCC2)nc2ccccc12 [Example 41, 4-(2-Fluoro-phenyl)-2-(piperidin-4-yl)-quinazoline hydrochloride] |
| 13.3 nM | c1ccc(-c2nc(C3CCNCC3)nc3ccccc23)cc1 [Example 42, 4-Phenyl-2-piperidin-4-yl-quinazoline hydrochloride] |
| 29.2 nM | CN1CCC(c2nc(-c3ccccc3F)c3ccccc3n2)CC1 [Example 43, 4-(2-Fluoro-phenyl)-2-(1-methyl-piperidin-4-yl)-quinazoline] |
| 62.5 nM | CN1CCC(c2nc(-c3ccccc3Cl)c3ccccc3n2)CC1 [Example 44, 4-(2-Chloro-phenyl)-2-(1-methyl-piperidin-4-yl)-quinazoline] |
| 8.7 nM | Clc1ccccc1-c1nc(C2CCNCC2)nc2ccccc12 [Example 45, 4-(2-Chloro-phenyl)-2-piperidin-4-yl-quinazoline hydrochloride] |
| 60.3 nM | COc1ccccc1-c1nc(C2CCNCC2)nc2ccccc12 [Example 46, 4-(2-Methoxy-phenyl)-2-piperidin-4-yl-quinazoline hydrochloride] |
| 8 nM | Fc1cccc(F)c1-c1nc(N[C@H]2CCNC2)nc2ccccc12 [Example 58] |
| 4.1 nM | Fc1cccc(-c2nc(N3CCNCC3)nc3ccccc23)c1 [Example 60, 4-(3-Fluoro-phenyl)-2-piperazin-1-yl-quinazoline] |

| Ki | Compound |
| --- | --- |
| 6.9 nM | Fc1ccc(-c2nc(N3CCNCC3)nc3ccccc23)c(Cl)c1 [Example 61, 4-(2-Chloro-4-fluoro-phenyl)-2-piperazin-1-yl-quinazoline] |
| 17.3 nM | Clc1ccc(-c2nc(N3CCNCC3)nc3ccccc23)cc1 [Example 62, 4-(4-Chloro-phenyl)-2-piperazin-1-yl-quinazoline] |
| 17.6 nM | Clc1cccc(Cl)c1-c1nc(N2CCNCC2)nc2ccccc12 [Example 63, 4-(2,6-Dichloro-phenyl)-2-piperazin-1-yl-quinazoline] |
| 17.7 nM | Fc1ccc2nc(C3CCNCC3)nc(-c3ccccc3F)c2c1 [Example 64, 6-Fluoro-4-(2-fluoro-phenyl)-2-piperidin-4-yl-quinazoline] |
| 3.3 nM | Fc1ccc2c(-c3ccccc3F)nc(C3CCNCC3)nc2c1 [Example 65, 7-Fluoro-4-(2-fluoro-phenyl)-2-piperidin-4-yl-quinazoline] |
| 5.5 nM | Fc1cccc(-c2nc(C3CCNCC3)nc3ccccc23)c1 [Example 66, 4-(3-Fluoro-phenyl)-2-piperidin-4-yl-quinazoline] |
| 53.5 nM | CN1CCC(c2nc(-c3cccc(F)c3)c3ccccc3n2)CC1 [Example 67, 4-(3-Fluoro-phenyl)-2-(1-methyl-piperidin-4-yl)-quinazoline] |
| 40.6 nM | Fc1ccc(-c2nc(C3CCNCC3)nc3ccccc23)cc1 [Example 68, 4-(4-Fluoro-phenyl)-2-piperidin-4-yl-quinazoline] |
| 37.9 nM | CN1CCC(c2nc(-c3c(F)cccc3F)c3ccccc3n2)CC1 [Example 69, 4-(2,6-Difluoro-phenyl)-2-(1-methyl-piperidin-4-yl)-quinazoline] |
| 2.9 nM | Fc1cccc(F)c1-c1nc(C2CCNCC2)nc2ccccc12 [Example 70, 4-(2,6-Difluoro-phenyl)-2-piperidin-4-yl-quinazoline] |
| 3 nM | Fc1cccc(-c2nc(C3CCNCC3)nc3ccccc23)c1F [Example 71, 4-(2,3-Difluoro-phenyl)-2-piperidin-4-yl-quinazoline] |
| 17.7 nM | Fc1ccc(-c2nc(C3CCNCC3)nc3ccccc23)c(F)c1 [Example 72, 4-(2,4-Difluoro-phenyl)-2-piperidin-4-yl-quinazoline] |
| 15.9 nM | Fc1ccc(F)c(-c2nc(C3CCNCC3)nc3ccccc23)c1F [Example 73, 2-Piperidin-4-yl-4-(2,3,6-trifluoro-phenyl)-quinazoline] |
| 22.9 nM | CN1CCC(c2nc(-c3c(F)cccc3Cl)c3ccccc3n2)CC1 [Example 74, 4-(2-Chloro-6-fluoro-phenyl)-2-(1-methyl-piperidin-4-yl)-quinazoline] |
| 5.9 nM | Fc1cccc(Cl)c1-c1nc(C2CCNCC2)nc2ccccc12 [Example 75, 4-(2-Chloro-6-fluoro-phenyl)-2-piperidin-4-yl-quinazoline] |
| 44.7 nM | Cc1ccccc1-c1nc(C2CCNCC2)nc2ccccc12 [Example 76, 2-Piperidin-4-yl-4-o-tolyl-quinazoline] |
| 22.8 nM | Fc1ccccc1-c1nc(C2CCCNC2)nc2ccccc12 (stereo not shown) [Example 77, 4-(2-Fluoro-phenyl)-2-piperidin-3-yl-quinazoline] |

| Compound | Ki |
| --- | --- |
| 2-Piperazin-1-yl-4-s-tolyl-quinazoline hydrochloride [Example 53] | 10.5 nM |
| 4-(2,4-Difluoro-phenyl)-2-piperazin-1-yl)-quinazoline hydrochloride [Example 38] | 2 nM |
| c1ccc(-c2nc(N3CC4CC3CN4)nc3ccccc23)cc1 (stereo not shown) [Example 10, 2-(2,5-Diaza-bicyclo[2.2.1]hept-2-yl)-4-phenyl-quinazoline hydrochloride] | 3.4 nM |
| c1ccc(-c2nc(N[C@H]3CCNC3)nc3ccccc23)cc1 [Example 17, (S)-(−)-3-(4-Phenyl-quinazolin-2-yl)-aminopyrrolidine hydrochloride] | 45 nM |
| Fc1ccccc1-c1nc(N2CC3CCCC(C2)N3)nc2ccccc12 [Example 33, 2-(3,9-Diaza-bicyclo[3.3.1]non-3-yl)-4-(2-fluoro-phenyl-quinazoline hydrochloride] | 19 nM |
| c1ccc(-c2nc(N3C4CCCC3CNC4)nc3ccccc23)cc1 [Example 55, 2-(3,9-Diaza-bicyclo[3.3.1]non-9-yl)-4-phenyl-quinazoline] | 11 nM |
